Values quoted from earlier work in US11980701B2, “Joint implant with constant and continuous release of therapeutic agent” (Diffusion RX, Inc., priority 2021, dated 2024).

What was measured:
[1] = test system: cartilage; settings: at low doses
[2] = test system: articular joint pain/inflammation; settings: known treatments

Structure (SMILES)	cartilage effect in in vivo studies [1]	length of effectiveness (FIG. 5A) [2]
C[C@]12C=CC(=O)C=C1CC[C@H]1[C@@H]3C[C@@H](O)[C@](O)(C(=O)CO)[C@@]3(C)C[C@H](O)[C@@]12F [triamcinolone]	significant cartilage protection	
C[C@]12CCC(=O)C=C1CC[C@@H]1[C@@H]2C(=O)C[C@@]2(C)[C@H]1CC[C@]2(O)C(=O)CO [cortisone shot, cortisone]		six to twelve
C[C@]12CCC(=O)C=C1CC[C@@H]1[C@@H]2[C@@H](O)C[C@@]2(C)[C@H]1CC[C@]2(O)C(=O)CO [hydrocortisone]	significant cartilage protection	
